{"source": "patent US4009206A", "about": "“N-(substituted phenyl and benzyl)abietamides” (priority 1974, dated 1977)", "system": "cholesterol in blood", "test": "Reduction of blood cholesterol in rats fed a 1% cholesterol / 0.25% sodium cholate diet", "type": "in vivo, male rats", "details": "3 days, control (cholesterol-administered) group = 0, normal group = 100, * 5%, ** 1% significance", "procedure": "A completely synthetic diet containing 1% of cholesterol, 0.25% of sodium cholate and 0.0003%, 0.003%, and 0.03% of the test compound is given to a group of 6 male rats having a body weight of about 50 g consecutively for 3 days, and the rats are fasted overnight. Then, the rats are decapitated and blood is collected to determine the cholesterol concentration in blood. The concentration of cholesterol in blood is measured with Technicon Autoanalyzer(Technicon Laboratory: Method File N-24a) Obtained results are shown in Table 1.\nEach value shown in the Table is a relative value determined based on the supposition that the value of the control group (the cholesterol-administered group) is 0 and the value of the normal group (the non-cholesterol-administered group) is 100.", "data": [{"molecule": "Cc1cccc(C)c1NC(=O)C1(C)CCCC2(C)C3=C(CCC12)CC(C(C)C)CC3", "note": "(centres unmarked) [N-(2,6-dimethylphenyl)-Δ^8-dihydroabietamide]", "values": [{"measurement": "% Inhibition (cholesterol in blood)", "setting": "Dose in Diet 0.0003%", "result": 33, "unit": "%"}, {"measurement": "% Inhibition (cholesterol in blood)", "setting": "Dose in Diet 0.003%", "result": 76, "unit": "%"}, {"measurement": "% Inhibition (cholesterol in blood)", "setting": "Dose in Diet 0.03%", "result": 102, "unit": "%"}]}, {"molecule": "CC(C)C1CCC2=C(CCC3C(C)(C(=O)NCc4ccc(Cl)cc4)CCCC23C)C1", "note": "(centres unmarked) [N-(4-chlorobenzyl)-Δ^8-dihydroabietamide]", "values": [{"measurement": "% Inhibition (cholesterol in blood)", "setting": "Dose in Diet 0.003%", "result": 9, "unit": "%"}, {"measurement": "% Inhibition (cholesterol in blood)", "setting": "Dose in Diet 0.03%", "result": 30, "unit": "%"}]}, {"molecule": "N-(m-bromophenyl)-dihydroabietamide", "values": [{"measurement": "% Inhibition (cholesterol in blood)", "setting": "Dose in Diet 0.0003%", "result": 7, "unit": "%"}, {"measurement": "% Inhibition (cholesterol in blood)", "setting": "Dose in Diet 0.003%", "result": 23, "unit": "%"}, {"measurement": "% Inhibition (cholesterol in blood)", "setting": "Dose in Diet 0.03%", "result": 60, "unit": "%"}]}]}
